Laboratory results: ChEMBL document CHEMBL1799982, “Synthesis, protein kinase inhibitory potencies, and in vitro antiproliferative activities of meridianin derivatives” (J Med Chem, 2011)

What was measured:
[1] = target: Cyclin-dependent kinase 5/CDK5 activator 1 (Homo sapiens, UniProt Q00535); assay: Inhibition of human recombinant CDK5/p25 using Histone H1 and [gamma32]-ATP after 30 mins by scintillation counting; assay type: protein-complex assay
[2] = system: DU-145; assay: Antiproliferative activity against human DU145 cells after 48 hrs by resazurin reduction test; assay type: functional, cell-based; conditions: DU-145, 48 h
[3] = Antiproliferative activity against human primary fibroblasts after 48 hrs by resazurin reduction test; assay type: cell-based; conditions: Fibroblast
[4] = target: Glycogen synthase kinase-3 (Sus scrofa, UniProt B2LUN4+I6LNT8); assay: Inhibition of pig brain GSK-3alpha/beta using YRRAAVPPSPSLSRHSSPHQSpEDEEE as substrate
[5] = system: PC-3; assay: Antiproliferative activity against human PC3 cells after 48 hrs by resazurin reduction test; conditions: PC-3, 48 h
[6] = target: Dual specificity protein kinase CLK1 (Homo sapiens, UniProt P49759)
[7] = Inhibition of pig brain CK1 delta/epsilon using RRKHAAIGpSAYSITA as substrate; parameters: species or system Sus scrofa
[8] = system: IMR-32; assay: Antiproliferative activity against human IMR32 cells by MTS reduction assay
[9] = system: SH-SY5Y; assay: Antiproliferative activity against human SH-SY5Y cells by MTS reduction assay
[10] = system: MCF7; assay: Antiproliferative activity against human MCF7 cells after 48 hrs by resazurin reduction test; conditions: MCF7, 48 h
[11] = system: HT-22; assay: Antiproliferative activity against mouse HT22 cells by MTS reduction assay
[12] = system: PA-1; assay: Antiproliferative activity against human PA1 cells after 48 hrs by resazurin reduction test; assay type: functional, cell-based; conditions: PA-1, 48 h
[13] = target: Dual specificity tyrosine-phosphorylation-regulated kinase 1A (Rattus norvegicus, UniProt Q63470); assay: Inhibition of rat recombinant GST-tagged DYRK1A using myelin protein as substrate and [gamma32]-ATP after 30 mins by scintillation counting

Chain of Dual specificity protein kinase CLK1 (P49759 whole entry): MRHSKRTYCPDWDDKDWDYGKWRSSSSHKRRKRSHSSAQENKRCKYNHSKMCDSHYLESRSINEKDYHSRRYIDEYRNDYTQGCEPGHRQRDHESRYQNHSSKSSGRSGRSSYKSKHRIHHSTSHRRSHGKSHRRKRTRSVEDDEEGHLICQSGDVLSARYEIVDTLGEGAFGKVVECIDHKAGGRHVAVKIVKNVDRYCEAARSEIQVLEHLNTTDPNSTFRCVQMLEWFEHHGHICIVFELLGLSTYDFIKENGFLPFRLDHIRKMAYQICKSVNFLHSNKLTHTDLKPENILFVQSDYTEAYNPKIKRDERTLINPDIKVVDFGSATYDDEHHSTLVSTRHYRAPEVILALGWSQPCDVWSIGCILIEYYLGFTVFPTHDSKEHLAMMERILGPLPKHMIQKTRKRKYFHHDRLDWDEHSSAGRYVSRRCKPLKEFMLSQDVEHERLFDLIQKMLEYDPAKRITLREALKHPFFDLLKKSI
Chain of Cyclin-dependent kinase 5/CDK5 activator 1 (Q00535 whole entry): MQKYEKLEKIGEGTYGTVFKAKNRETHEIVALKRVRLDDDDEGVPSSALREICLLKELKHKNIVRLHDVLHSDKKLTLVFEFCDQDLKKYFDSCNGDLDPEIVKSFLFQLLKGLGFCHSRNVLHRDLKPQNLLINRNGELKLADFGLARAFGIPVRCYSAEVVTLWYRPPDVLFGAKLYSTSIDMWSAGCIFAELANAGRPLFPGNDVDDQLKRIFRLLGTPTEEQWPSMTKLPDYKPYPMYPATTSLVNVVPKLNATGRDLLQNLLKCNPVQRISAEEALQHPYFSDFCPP
Chain of Cyclin-dependent kinase 5/CDK5 activator 1 (Q15078 whole entry, further chain): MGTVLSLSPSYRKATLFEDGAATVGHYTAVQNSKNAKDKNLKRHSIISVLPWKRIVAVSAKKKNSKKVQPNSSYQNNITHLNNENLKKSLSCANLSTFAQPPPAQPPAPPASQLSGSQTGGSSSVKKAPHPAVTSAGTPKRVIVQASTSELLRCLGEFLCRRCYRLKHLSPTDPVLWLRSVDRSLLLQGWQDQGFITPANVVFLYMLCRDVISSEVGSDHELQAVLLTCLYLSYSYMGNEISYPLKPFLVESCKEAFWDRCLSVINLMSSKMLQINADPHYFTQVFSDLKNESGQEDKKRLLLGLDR

SMILES	IC50 [1] [µM]	IC50 [2] [µM]	IC50 [3] [µM]	IC50 [4] [µM]	IC50 [5] [µM]	IC50 [6] [µM]	IC50 [7] [µM]	IC50 [8] [µM]	IC50 [9] [µM]	IC50 [10] [µM]	IC50 [11] [µM]	IC50 [12] [µM]	IC50 [13] [µM]
COc1cccc(-c2cnc(N)nc2-c2c[nH]c3c(Br)cccc23)c1	> 10	33	31	> 10	29	0.87	4.2	> 10	> 10	> 10	> 10	13	0.85
CC(=O)c1ccc(-c2cnc(N)nc2-c2c[nH]c3cccc(Br)c23)cc1	7				> 10		> 10	> 10	> 10	> 10	> 10	> 10	2.1
Nc1ncc(-c2ccc(C(F)(F)F)cc2)c(-c2c[nH]c3c(Br)cccc23)n1	> 10	18	14	8.5	8	1.5	> 10	> 10	> 10	> 10	> 10	17	1.25
CC(=O)c1ccc(-c2cnc(N)nc2-c2c[nH]c3cc(Br)ccc23)cc1	> 10	< 0.6	< 0.6	2	< 0.6	1.8	> 10	0.33	0.4	1	2.5	< 0.6	> 10
CC(=O)Nc1ccc(-c2cnc(N)nc2-c2c[nH]c3c(Br)cccc23)cc1	7.5	13	8	2.2	5	0.087	> 10	25	25	> 25	> 25	3	0.19
Nc1ncc(I)c(-c2c[nH]c3c(N)cccc23)n1	0.66	6.1	10.6	4.4	14	0.026	1.1	4	9	20	12	2.5	0.11
Nc1ncc(I)c(-c2c[nH]c3ccccc23)n1	1.4	5	8	3.7	10.6	0.03	0.9	10	7.5	17	7.3	3.3	0.066
CC(=O)Nc1ccc(-c2cnc(N)nc2-c2c[nH]c3ccc(Br)cc23)cc1	6.8			0.4	> 10	0.75	2.1	> 10	> 10	> 10	> 10	> 10	4.15
CC(=O)c1ccc(-c2cnc(N)nc2-c2c[nH]c3ccc(Br)cc23)cc1	> 10			0.68	> 10	1.6	> 10	13	> 25	4.2	10	> 10	8.45
Nc1ncc(I)c(-c2c[nH]c3cccc([N+](=O)[O-])c23)n1	> 10	5.4	5	> 10	7	7.1	> 10	> 10	> 10	> 10	> 10	3.3	9.1
Nc1nccc(-c2c[nH]c3cccc(Br)c23)n1	10			> 10		1.4	5.3	> 25	> 25	> 25	> 25		0.85
Nc1nccc(-c2c[nH]c3c(Br)cccc23)n1	3.1			> 10		0.065	4.2	25	> 25	> 25	> 25		0.068
CC(=O)Nc1ccc(-c2cnc(N)nc2-c2c[nH]c3cc(Br)ccc23)cc1	> 10	20	24	1.6	14	0.53	8.1	> 10	> 10	> 10	> 10	12	3.1
CC(=O)Nc1ccc(-c2cnc(N)nc2-c2c[nH]c3cccc(Br)c23)cc1	> 10			> 10	> 10	> 10	> 10	> 10	> 10	> 10	> 10	> 10	> 10
Nc1ncc(-c2ccc(C(F)(F)F)cc2)c(-c2c[nH]c3cccc(Br)c23)n1	4.7			1	> 10	1.3	> 10	> 10	> 10	> 10	> 10	> 10	1.85
Nc1ncc(-c2ccc(C(F)(F)F)cc2)c(-c2c[nH]c3ccc(Br)cc23)n1	> 10			2	> 10	> 10	> 10	> 10	> 10	> 10	> 10	> 10	> 10
Nc1nccc(-c2c[nH]c3cc(Br)ccc23)n1 [MERIDIANIN D]	1.2			7.2		0.12	3.8	> 25	> 25	> 25	> 25		0.13
Nc1ncc(-c2ccc(C(F)(F)F)cc2)c(-c2c[nH]c3cc(Br)ccc23)n1	> 10			6.1	> 10	> 10	> 10	> 10	> 10	> 10	> 10	> 10	> 10
COc1cccc(-c2cnc(N)nc2-c2c[nH]c3cccc(Br)c23)c1	6			1.4	> 10	1.3	> 10	> 10	> 10	> 10	> 10	> 10	0.81
Nc1nccc(-c2c[nH]c3ccccc23)n1	5			> 10		0.53	6.2	> 25	> 25	> 25	> 25		0.7
Nc1nccc(-c2c[nH]c3cc([N+](=O)[O-])ccc23)n1	> 10			> 10		0.38	6.3	> 25	> 25	> 25	> 25		1.1
Nc1ncc(I)c(-c2c[nH]c3ccc(Br)cc23)n1	1.8			2.1	> 10	0.18	0.77	13	23	> 25	8	> 10	0.33
Nc1nccc(-c2c[nH]c3c([N+](=O)[O-])cccc23)n1	6.3			> 10		0.07	10	> 25	> 25	> 25	> 25		0.085
COc1cccc(-c2cnc(N)nc2-c2c[nH]c3ccc(Br)cc23)c1	7.6			1.2	> 10	2.5	2.2	20	> 25	> 25	18	> 10	5.65
Nc1ncc(I)c(-c2c[nH]c3cccc(Br)c23)n1	> 10			> 10	> 10	2.3	1.3	> 10	> 10	> 10	> 10	> 10	1.45
Nc1nccc(-c2c[nH]c3ccc(Br)cc23)n1 [MERIDIANIN C]	1.2			1.3		0.22	7.3	> 25	> 25	24	9.3		0.33
COc1cccc(-c2cnc(N)nc2-c2c[nH]c3cc(Br)ccc23)c1	> 10			4.5	> 10	2.3	3.2	18	> 25	> 25	16	> 10	8.2
